Biological target: Corticotropin-releasing factor receptor 2 (Sus scrofa)
Test: Inhibition of [125I]- sauvagine binding to corticotropin releasing factor receptor 2 of porcine choroid plexus

**Q.** How did the IC50 turn out when `CCc1nc2c(n1C(C1CC1)C1CC1)C(=O)N(C)CN2c1ccc(Cl)cc1Cl` [3-(2,4-Dichloro-phenyl)-7-dicyclopropylmethyl-8-ethyl-1-methyl-1,2,3,7-tetrahydro-purin-6-one] was run?
**A.** > 10 µM

— BindingDB's records for doi:10.1021/jm049787k (Pharmaceutical Research Institute, 2004)
